Measured values taken from publication PMC8296985, “A Covalent Calmodulin Inhibitor as a Tool to Study Cellular Mechanisms of K-Ras-Driven Stemness” (Frontiers in Cell and Developmental Biology, 2021).

Assays:
[1] = test system: α-hemoglobin; parameters: method as in earlier work; details: formyl warhead, ref Center for Drug Evaluation and Research, 2017, Metcalf et al.; cited from earlier work
[2] = test system: H-RasG12V; assay: H-RasG12V nanoclustering-BRET assay in HEK293-EBNA cells; type: cell-based; details: FTI-277 1 μM, 24 h
Procedure: BRET assays were essentially performed as described by others ([Lavoie et al., 2013]; [Bery et al., 2018]). About 100,00–150,000 HEK293-EBNA ([Meissner et al., 2001]) cells were seeded per well of a 12-well plate in 1 ml of DMEM containing 10% FBS and 2 mM L-glutamine and were grown for 24 h. Next day, Rluc8-tagged donor and GFP2-tagged acceptor constructs were transfected into cells using a jetPRIME transfection reagent (cat. no. 114-75, Polyplus). Each well was transfected with about 1 μg of plasmid DNA using 3 μl of the jetPRIME reagent. […] Then fluorescence intensity followed by BRET readings were carried out on a Clariostar (BMG Labtech) plate reader at 25°C. The fluorescence intensity (RFU) of GFP2 was measured with excitation at 405 ± 10 nm and emission 515 ± 10 nm; it is proportional to the acceptor concentration [acceptor]. BRET readings were taken well by well by adding 10 μl of 100 μM coelenterazine 400a (cat. no. C-320, GoldBio), the Rluc8 substrate to each well (final concentration of 10 μM) using the injector present in the plate reader. Luminescence emission intensities were simultaneously recorded at 410 ± 40 nm (RLU, proportional to [donor]) and 515 ± 15 nm (BRET signal).
The raw BRET ratio was calculated as the BRET signal measured at 515 nm divided by the emission signal measured at 410 nm (RLU). […]

[3] = test system: Ca^2+/CaM-dependent cyclic nucleotide phosphodiesterase; parameters: method as in Itoh and Hidaka, 1984; Zimmer and Hofmann, 1984; details: ref Itoh and Hidaka, 1984, Zimmer and Hofmann; cited from earlier work

CC(C)n1nccc1-c1ncccc1COc1cccc(O)c1C=O [GBT440]
k2/Ki [1]: 15 × 10^3 M^–1 h^–1

COC(=O)[C@H](CCSC)NC(=O)c1ccc(NC[C@@H](N)CS)cc1-c1ccccc1 [FTI-277]
H-Ras selective decrease of nanoclustering-BRET [2]: 1.4 fold

NCCCCCCNS(=O)(=O)c1cccc2c(Cl)cccc12 [Compound W-7]
concentration inhibiting CaM targets [3]: > 100 µM
